The values below come from patent US11896707B2, “Cosmetic preparations comprising Daphne extracts” (ETH Zurich, priority 2018, dated 2024).

The test system of data set [1] is lymphatic endothelial cell (LEC). The data set is described as follows: LEC sprouting assay (LEC-covered dextran beads, sprouts per bead). The class given is cell-based. Here is the method: Stimulation of the lymphatic system: Lymph vessels fulfill an important role in order to maintain the microenvironment surrounding tissue in a constant state by removing unwanted substances present in skin as well as water and protein constantly escaping from blood vessels. […] This action was tested using in vitro test methods. In particular, using a model of sprouting assay developed previously (c.f. ADD Reference SCHULZ MM ET AL., PNAS 2012: PMID 22949700), a library of plant extracts was screened for extracts inducing lymphatic endothelial cell (LEC) sprouting. The key findings were further verified and analysed to characterize the active ingredients. The advantageous effects of the plant extracts were further confirmed by conducting relevant cell proliferation assays, in vitro migration assays and LEC tube formation assays. Given the positive results in all above mentioned assays, one can deduct the positive effect of the plant extracts and the active ingredient thereof, on improving lymphatic vascular function.
After a 24 hour incubation of fluorescently labeled LEC (lymphatic endothelial cell)-covered dextran beads with 10 pg/mL of extracts from a library of 1954 plant-derived samples, sprout formation was assessed by determining the ratio of sprouts per bead. 0.1% DMSO served as a vehicle control. Each extract was tested as 1-plicate and the entire library was screened in two independent replicates.
Sprout formation was assessed by determining the ratio of sprouts per bead. 0.1% DMSO and VEGF-A (20 ng/mL) served as negative and positive controls respectively.
0.1% DMSO served as a vehicle control and VEGF-A (20 ng/mL) as a positive control.

Data set [2] concerns LEC: lymphatic endothelial cell. The data set is described as follows: LEC proliferation in vitro. The class given is cell-based. As to the method:
Selectivity was examined using D. giraldii extracts. D. giraldii extract (CH3OH) promoted endothelial cell proliferation in vitro. […] At least 2 independent experiments with n=5 were performed for each cell type. LEC: lymphatic endothelial cell; HDFB: human dermal fibroblast; HaCaT: immortalized human keratinocyte; BEC: blood endothelial cell.
Daphnetoxin induced LEC proliferation most potently at 0.03 pM reaching 247±38% of control (0.1% DMSO).

Data set [3] has the same test system. The data set is described as follows: Toxicity on LEC. It is filed as cell-based. The settings on record: FIG. 8. An excerpt: (§1) Toxicity of the extracts according to example 2 was investigated. […] (LEC: lymphatic endothelial cell; HDFB: human dermal fibroblast; HaCaT: immortalized human keratinocyte; BEC: blood endothelial cell). The results are summarized in FIG. 8 and indicate its usefulness in cosmetic applications.

For data set [4], the system named is HDFB: human dermal fibroblast. The data set is described as follows: Toxicity on HDFB. It is filed as cell-based. The settings on record: FIG. 8.
Text: as §1

Data set [5] concerns HaCaT: immortalized human keratinocyte. The data set is described as follows: Toxicity on HaCaT. The class given is cell-based. The following applies: FIG. 8.
Text: as §1

Data set [6] deals with BEC: blood endothelial cell. The data set is described as follows: Toxicity on BEC. The class given is cell-based. The settings on record: FIG. 8.
Text: as §1

The test system of data set [7] is lymphatic endothelial cell (LEC). The data set is described as follows: Stability test: LEC sprouting activity after storage. It is filed as cell-based. The settings on record: prolonged exposure at 4° C., 25° C. and 50° C. for one week. From the text:
The D. giraldii extract and daphnetoxin were subjected to stability tests.

The nature of data set [8]: Stability test by HPLC-UV-MS analysis. The class given is physicochemical. The settings on record: storage in DMSO for one week at 50° C.

Bounds are passed on as bounds.

Consider `C=C(C)[C@]12C[C@@H](C)[C@@]34OC(c5ccccc5)(O[C@@H]1[C@@H]3[C@@H]1O[C@]1(CO)[C@@H](O)[C@]1(O)C(=O)C(C)=C[C@H]14)O2` [Daphnetoxin], for which the “LEC sprouting, sprouts/bead” value in data set [1] (at 100 nM, FIG. 7A) is listed as 4.05 sprouts/bead. Moreover, the “sprouting activity of HPLC fractions (HPLC-based activity profiling)” value in data set [1] (fraction from D. giraldii dichloromethane extract, FIG. 6) was “main active compound”. In addition, in data set [1] (further experiment, 6 replicates, FIG. 7A), the “concentration from which LEC sprouting is significantly induced” value is ≥ 10 nM. Moreover, the “concentration from which LEC proliferation is significantly induced” value in data set [2] (6 replicates, FIG. 7B) is listed as ≥ 0.003 pM. Also, the “LEC proliferation, specificity” value in data set [2] (Ex. 8, FIG. 8) is given as “promoted lymphatic endothelial cell proliferation specifically”. The LEC proliferation in data set [2] (at 0.03 pM (most potent concentration), FIG. 7B) is listed as 247±38 % of control (0.1% DMSO). The “cytotoxic effects on LEC” value in data set [3] was “did not evoke any cytotoxic effects”. Also, the “cytotoxic effects on HDFB” value in data set [4] was “did not evoke any cytotoxic effects”. The “cytotoxic effects on HaCaT” value in data set [5] is “did not evoke any cytotoxic effects”. For the same compound, the “cytotoxic effects on BEC” value in data set [6] is “did not evoke any cytotoxic effects”. Further, the “activity of LEC sprouting after storage” value in data set [7] is recorded as “consistent activity of LEC sprouting”. In data set [8], the “stability by HPLC-UV-MS analysis” value was “confirms stability”.
